How the values were obtained:
Type in all cases: in vivo
winter oilseed rape = assay: Field trial, visual crop injury ratings; conditions: varying rates, crop Growth Stage 39-50, 32, 49, and 74 days after treatment, in each case
Method: (§1) Multiple small plot research experiments were conducted to evaluate efficacy and tolerance of winter oilseed rape to compositions described herein. Typical small plots (2-4×4-10 meters (m)) were used in growers' fields under natural conditions with normal commercial cultural practices. Backpack sprayers were used to apply all treatments based on unit area. The methyl ester of formula (I) and propyzamide were tested alone and in combination at varying rates. Application water volume was 150 L/ha. Crop stage was at Growth Stage 39-50. Visual crop injury ratings were collected 32, 49, and 74 days after treatment. […] The reported values are means.

[1] = tested on: VERSS Veronica sp. (speedwell); assay: Field trial, visual weed control in winter oilseed rape
Method: as §1, with “Application water volume was 150 L/ha.” left out, “means. […] The following abbreviations are used in Tables 2-4: • GERSS Geranium sp. (cranesbill) • POAAN Poa annua (annual bluegrass) • VERSS Veronica sp.” for “means.”

[2] = tested on: POAAN Poa annua (annual bluegrass); assay: as above
Method: as §1, with “Application water volume was 150 L/ha.” left out, “means. […] The following abbreviations are used in Tables 2-4: • GERSS Geranium sp. (cranesbill) • POAAN Poa annua (annual bluegrass) • VERSS Veronica sp.” for “means.”

[3] = tested on: GERSS Geranium sp. (cranesbill); assay: as above
Method: as §1, with “Application water volume was 150 L/ha.” left out, “means. […] The following abbreviations are used in Tables 2-4: • GERSS Geranium sp. (cranesbill) • POAAN Poa annua (annual bluegrass) • VERSS Veronica sp.” for “means.”

[4] = tested on: POLCO Polygonum convolvulus L. (wild buckwheat); assay: Postemergent herbicidal activity, greenhouse; conditions: foliar, 14 d
Method: (§2) Evaluation of Postemergent Herbicidal Activity. Seeds or nutlets of the desired test plant species were planted in Sun Gro Metro-Mix® 360 planting mixture, which typically has a pH of 6.0 to 6.8 and an organic matter content of about 30 percent, in plastic pots with a surface area of 64 square centimeters (cm^2). […] The plants were grown for 7-21 days (d) in a greenhouse with an approximate 15 hour (h) photoperiod which was maintained at about 23-29° C. during the day and 22-28° C. during the night. Nutrients and water were added on a regular basis and supplemental lighting was provided with overhead metal halide 1000-Watt lamps as necessary. The plants were employed for testing when they reached the first or second true leaf stage.
(§3) A weighed amount, determined by the highest rate to be tested, of each test compound was placed in a 25 milliliter (mL) glass vial and was dissolved in 4 mL of a 97:3 volume per volume (v/v) mixture of acetone and dimethyl sulfoxide (DMSO) to obtain concentrated stock solutions. […] The concentrated stock solutions obtained were diluted with 20 mL of an aqueous mixture containing acetone, water, isopropyl alcohol, DMSO, Atplus 411F crop oil concentrate, and Triton® X-155 surfactant in a 48.5:39:10:1.5:1.0:0.02 v/v ratio to obtain spray solutions containing the highest application rates. Additional application rates were obtained by serial dilution of 12 mL of the high rate solution into a solution containing 2 mL of a 97:3 v/v mixture of acetone and DMSO and 10 mL of an aqueous mixture containing acetone, water, isopropyl alcohol, DMSO, Atplus 411F crop oil concentrate, and Triton X-155 surfactant in a 48.5:39:10:1.5:1.0:0.02 v/v ratio to obtain 1/2×, 1/4×, 1/8× and 1/16× rates of the high rate. Compound requirements are based upon a 12 mL application volume at a rate of 187 liters per hectare (L/ha). Formulated compounds were applied to the plant material with an overhead Mandel track sprayer equipped with 8002E nozzles calibrated to deliver 187 L/ha over an application area of 0.503 square meters (m^2) at a spray height of 18 inches (43 cm) above the average plant canopy height. Control plants were sprayed in the same manner with the solvent blank.
(§4) Treatments consisted of the methyl ester of 4-amino-3-chloro-6-(4-chloro-2-fluoro-3-methoxyphenyl)pyridine-2-carboxylic acid (Cmpd 1) as technical grade material and propyzamide (Kerb 50 W) alone and in combination.
(§5) The treated plants and control plants were placed in a greenhouse as described above and watered by subirrigation to prevent wash-off of the test compounds. After 14 d, the condition of the test plants as compared with that of the untreated plants was determined visually and scored on a scale of 0 to 100 percent where 0 corresponds to no injury and 100 corresponds to complete kill.
(§6) Colby's equation was used to determine the herbicidal effects expected from the mixtures (Colby, S. R. Calculation of the synergistic and antagonistic response of herbicide combinations. Weeds 1967, 15, 20-22). More specifically, the following equation was used to calculate the expected activity of mixtures containing two active ingredients, A and B: Expected=A+B−(A×B/100) A=observed efficacy of active ingredient A at the same concentration as used in the mixture; B=observed efficacy of active ingredient B at the same concentration as used in the mixture.

[5] = tested on: EPHHL Euphorbia heterophylla L. (wild poinsettia); assay: Postemergent herbicidal activity, greenhouse; conditions: foliar, 14 d
Method: as §2, §3, §4, §5, §6

[6] = tested on: STEME Stellaria media (L.) Vill. (common chickweed); assay: Postemergent herbicidal activity, greenhouse; conditions: foliar, 14 d
Method: as §2, §3, §4, §5, §6

[7] = tested on: ABUTH Abutilon theophrasti Medik. (velvetleaf); assay: Postemergent herbicidal activity, greenhouse; conditions: foliar, 14 d
Method: as §2, §3, §4, §5, §6

[8] = tested on: BRSNW Brassica napus (winter oilseed rape); assay: Postemergent herbicidal activity, greenhouse; conditions: foliar, 14 d
Method: as §2, §3, §4, §5, §6

[9] = tested on: SETFA Setaria faberi Herrm. (giant foxtail); assay: Postemergent herbicidal activity, greenhouse; conditions: foliar, 14 d
Method: as §2, §3, §4, §5, §6

[10] = tested on: VIOTR Viola tricolor L. (wild violet); assay: Postemergent herbicidal activity, greenhouse; conditions: foliar, 14 d
Method: as §2, §3, §4, §5, §6

[11] = tested on: IPOHE Ipomoea hederacea (L.) Jacq. (ivyleaf morningglory); assay: Postemergent herbicidal activity, greenhouse; conditions: foliar, 14 d
Method: as §2, §3, §4, §5, §6

[12] = tested on: CHEAL Chenopodium album L. (common lambsquarters); assay: Postemergent herbicidal activity, greenhouse; conditions: foliar, 14 d
Method: as §2, §3, §4, §5, §6

[13] = tested on: GLXMA Glycine max (volunteer soybean); assay: Postemergent herbicidal activity, greenhouse; conditions: foliar, 14 d
Method: as §2, §3, §4, §5, §6

[14] = tested on: AMARE Amaranthus retroflexus L. (redroot pigweed); assay: Postemergent herbicidal activity, greenhouse; conditions: foliar, 14 d
Method: as §2, §3, §4, §5, §6

[15] = tested on: CIRAR Cirsium arvense (L.) Scop. (Canada thistle); assay: Postemergent herbicidal activity, greenhouse; conditions: foliar, 14 d
Method: as §2, §3, §4, §5, §6

[16] = Propyzamide 250 g ai/ha, 32 DAAA
[17] = Propyzamide 250 g ai/ha, 80 DAAA
[18] = Propyzamide 500 g ai/ha, 32 DAAA
[19] = Propyzamide 500 g ai/ha, 80 DAAA
[20] = Propyzamide 750 g ai/ha, 32 DAAA
[21] = Propyzamide 750 g ai/ha, 80 DAAA
[22] = Propyzamide 250 g ai/ha, 58 DAAA
[23] = Propyzamide 500 g ai/ha, 58 DAAA
[24] = Propyzamide 750 g ai/ha, 58 DAAA

Compound: C#CC(C)(C)NC(=O)c1cc(Cl)cc(Cl)c1 [Propyzamide, 3,5-dichloro-N-(1,1-dimethylpropynyl)benzamide]
- Visual crop injury rating (winter oilseed rape): 0 % injury
- % control rated visually, ob (observed) [1, 16]: 43.8%
- % control rated visually, ob (observed) [1, 17]: 100.0%
- % control rated visually, ob (observed) [1, 18]: 60.0%
- % control rated visually, ob (observed) [1, 19]: 100.0%
- % control rated visually, ob (observed) [1, 20]: 54.3%
- % control rated visually, ob (observed) [1, 21]: 100.0%
- % control rated visually, ob (observed) [2, 16]: 12.5%
- % control rated visually, ob (observed) [2, 22]: 12.5%
- % control rated visually, ob (observed) [2, 17]: 45.0%
- % control rated visually, ob (observed) [2, 18]: 15.0%
- % control rated visually, ob (observed) [2, 23]: 67.5%
- % control rated visually, ob (observed) [2, 19]: 95.0%
- % control rated visually, ob (observed) [2, 20]: 37.5%
- % control rated visually, ob (observed) [2, 24]: 92.5%
- % control rated visually, ob (observed) [2, 21]: 98.3%
- % control rated visually, ob (observed) [3, 16]: 5.0%
- % control rated visually, ob (observed) [3, 22]: 17.5%
- % control rated visually, ob (observed) [3, 17]: 22.5%
- % control rated visually, ob (observed) [3, 18]: 20.0%
- % control rated visually, ob (observed) [3, 23]: 35.0%
- % control rated visually, ob (observed) [3, 19]: 28.8%
- % control rated visually, ob (observed) [3, 20]: 18.8%
- % control rated visually, ob (observed) [3, 24]: 25.0%
- % control rated visually, ob (observed) [3, 21]: 33.8%
- % control rated visually, ob (observed) ([4]; Propyzamide 285 g ai/ha): 5%
- % control rated visually, ob (observed) ([4]; Propyzamide 570 g ai/ha): 15%
- % control rated visually, ob (observed) ([5]; Propyzamide 285 g ai/ha): 0%
- % control rated visually, ob (observed) ([5]; Propyzamide 570 g ai/ha): 0%
- % control rated visually, ob (observed) ([6]; Propyzamide 285 g ai/ha): 7%
- % control rated visually, ob (observed) ([6]; Propyzamide 570 g ai/ha): 75%
- % control rated visually, ob (observed) ([7]; Propyzamide 285 g ai/ha): 5%
- % control rated visually, ob (observed) ([7]; Propyzamide 570 g ai/ha): 0%
- % control rated visually, ob (observed) ([8]; Propyzamide 285 g ai/ha): 5%
- % control rated visually, ob (observed) ([8]; Propyzamide 570 g ai/ha): 20%
- % control rated visually, ob (observed) ([9]; Propyzamide 285 g ai/ha): 0%
- % control rated visually, ob (observed) ([9]; Propyzamide 570 g ai/ha): 0%
- % control rated visually, ob (observed) ([10]; Propyzamide 285 g ai/ha): 0%
- % control rated visually, ob (observed) ([10]; Propyzamide 570 g ai/ha): 0%
- % control rated visually, ob (observed) ([11]; Propyzamide 285 g ai/ha): 10%
- % control rated visually, ob (observed) ([11]; Propyzamide 570 g ai/ha): 17%
- % control rated visually, ob (observed) ([12]; Propyzamide 285 g ai/ha): 0%
- % control rated visually, ob (observed) ([12]; Propyzamide 570 g ai/ha): 0%
- % control rated visually, ob (observed) ([13]; Propyzamide 285 g ai/ha): 10%
- % control rated visually, ob (observed) ([13]; Propyzamide 570 g ai/ha): 15%
- % control rated visually, ob (observed) ([14]; Propyzamide 285 g ai/ha): 0%
- % control rated visually, ob (observed) ([14]; Propyzamide 570 g ai/ha): 10%
- % control rated visually, ob (observed) ([15]; Propyzamide 285 g ai/ha): 0%
- % control rated visually, ob (observed) ([15]; Propyzamide 570 g ai/ha): 0%

— patent US9730446B2, “Herbicidal compositions comprising 4-amino-3-chloro-6-(4-chloro-2-fluoro-3-methoxyphenyl)pyridine-2-carboxylic acid or a derivative thereof and propyzamide” (Dow AgroSciences LLC, priority 2013, dated 2017)
